Values of other authors, collected in patent US20240307504A1, “INTRANASAL FORMULATIONS AND DELIVERY OF SOMATOSTATIN MIMETICS AND USES THEREOF” (NBO PHARMA LLC, priority 2021, published 2024).
Read-outs that look alike come from different tables or passages of the source.

Molecule	biological half-life (after intravenous administration)	biological half-life (after subcutaneous administration)	biological half-life (in vivo)
C[C@@H](O)[C@@H]1NC(=O)[C@H](CCCCN)NC(=O)[C@@H](Cc2c[nH]c3ccccc23)NC(=O)[C@H](Cc2ccccc2)NC(=O)[C@@H](NC(=O)[C@H](N)Cc2ccccc2)CSSC[C@@H](C(=O)N[C@H](CO)[C@@H](C)O)NC1=O [Octreotide]	72 minutes	102 minutes	–
L-alanyl-glycyl-L-cysteinyl-L-lysyl-L-asparagyl-L-phenylalanyl-L-phenylalanyl-L-tryptophyl-L-lysyl-L-threonyl-L-phenylalanyl-L-threonyl-L-seryl-L-cysteine (3->14)-disulfide [somatostatin]	–	–	2-3 minutes
